Measurements as given in patent US9024044B2, “Heteroarylcarboxylic acid ester derivative” (Ajinomoto Co., Inc., priority 2012, dated 2015).
Counter-ions that a name gives are not always drawn.

Columns and labels:
human trypsin = human trypsin (Homo sapiens, UniProt P07477); test: Measurement of trypsin inhibitory activity; type: biochemical; conditions: substrate Boc-Phe-Ser-Arg-AMC, Tris-HCl pH 8.0, Dixon plot
Method: Measurement of Trypsin Inhibitory Activity
Using a 96 well plate (#3915, Costar), a test compound (25 μL) was mixed with 20 μM fluorescence enzyme substrate (Boc-Phe-Ser-Arg-AMC, 50 μL) mixed with 200 mM Tris-HCl buffer (pH 8.0), and human trypsin (Sigma, 25 μL) was added. Using a fluorescence plate reader fmax (Molecular Devices, Inc.), the reaction rate was measured from the time-course changes at excitation wavelength 355 nm and fluorescence wavelength 460 nm. The Ki value was calculated from the concentration of the test compound, reciprocal of reaction rate, and Km value of the enzyme substrate, and by using Dixon plot.

[1] = target: recombinant human enteropeptidase (Homo sapiens (Human), UniProt P98073); test: Measurement of enteropeptidase inhibitory activity; type: biochemical; conditions: substrate Gly-Asp-Asp-Asp-Asp-Lys-β-Naphtylamide, Tris-HCl pH 8.0, Dixon plot
Sequence of recombinant human enteropeptidase (P98073 whole entry): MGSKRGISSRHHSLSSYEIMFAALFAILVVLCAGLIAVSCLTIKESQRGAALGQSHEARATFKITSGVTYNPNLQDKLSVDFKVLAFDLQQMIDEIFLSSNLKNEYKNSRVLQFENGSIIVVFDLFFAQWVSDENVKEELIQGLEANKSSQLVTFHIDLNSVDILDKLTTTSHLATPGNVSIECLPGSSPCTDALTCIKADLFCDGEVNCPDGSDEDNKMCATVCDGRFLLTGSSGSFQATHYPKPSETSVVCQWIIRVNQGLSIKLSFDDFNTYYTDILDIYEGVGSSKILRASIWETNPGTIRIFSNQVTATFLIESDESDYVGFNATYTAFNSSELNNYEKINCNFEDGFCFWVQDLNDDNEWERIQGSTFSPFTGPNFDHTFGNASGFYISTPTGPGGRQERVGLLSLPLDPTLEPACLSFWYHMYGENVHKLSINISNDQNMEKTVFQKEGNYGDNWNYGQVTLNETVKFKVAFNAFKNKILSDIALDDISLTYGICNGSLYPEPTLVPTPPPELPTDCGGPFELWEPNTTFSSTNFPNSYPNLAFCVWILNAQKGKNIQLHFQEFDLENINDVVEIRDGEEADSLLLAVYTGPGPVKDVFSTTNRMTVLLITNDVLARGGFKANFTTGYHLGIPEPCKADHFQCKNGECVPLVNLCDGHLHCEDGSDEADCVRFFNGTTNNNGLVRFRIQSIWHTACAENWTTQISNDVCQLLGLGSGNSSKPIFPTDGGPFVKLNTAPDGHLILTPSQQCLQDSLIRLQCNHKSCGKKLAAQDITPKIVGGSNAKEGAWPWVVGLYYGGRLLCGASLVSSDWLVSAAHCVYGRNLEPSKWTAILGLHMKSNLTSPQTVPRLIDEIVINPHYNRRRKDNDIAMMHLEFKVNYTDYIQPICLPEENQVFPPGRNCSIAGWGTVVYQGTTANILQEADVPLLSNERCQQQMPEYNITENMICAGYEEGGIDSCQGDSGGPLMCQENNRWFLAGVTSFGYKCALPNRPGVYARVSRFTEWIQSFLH
Method: Measurement of Enteropeptidase Inhibitory Activity
Using a 96 well plate (#3915, Costar), a test compound (25 μL), 400 mM Tris-HCl buffer (pH 8.0, 25 μL) and 0.5 mg/mL fluorescence enzyme substrate (Gly-Asp-Asp-Asp-Asp-Lys-β-Naphtylamide, 25 μL) were mixed, and recombinant human enteropeptidase (R&D Systems, Inc., 25 μL) was added. Using a fluorescence plate reader fmax (Molecular Devices, Inc.), the reaction rate was measured from the time-course changes at excitation wavelength 320 nm and fluorescence wavelength 405 nm. The Ki value was calculated from the concentration of the test compound, reciprocal of reaction rate, and Km value of the enzyme substrate, and by using Dixon plot.

SMILES	Ki (human trypsin) [nM]	Ki [1] [nM]
CC(C)(Cc1ccc(C(=O)Oc2ccc(C(=N)N)cc2F)s1)C(=O)N1CC(F)(F)C1 [Compound 46]	3.89	5.27
CCC(CC)(Cc1ccc(C(=O)Oc2ccc(C(=N)N)cc2F)s1)C(=O)N[C@@H](CCC(N)=O)C(=O)O [Compound 42]	3.88	1.69
CCC(CC)(Cc1ccc(C(=O)Oc2ccc(C(=N)N)cc2F)s1)C(=O)N(C)CC(=O)O [Compound 21, N-{3-[5-(4-amidino-2-fluoro-phenoxycarbonyl)thiophen-2-yl]-2,2-diethylpropionyl}-sarcosine hydrochloride]	1.76	0.88
CC(C)(Cc1ccc(C(=O)Oc2ccc(C(=N)N)cc2F)s1)C(=O)N[C@@H](C(=O)O)c1ccccc1 [Compound 38]	1.45	0.97
CCC(CC)(Cc1ccc(C(=O)Oc2ccc(C(=N)N)cc2F)s1)C(=O)NCCC[C@H](N)C(=O)O [Compound 52]	5.78	5.53
CCC(CC)(Cc1ccc(C(=O)Oc2ccc(C(=N)N)cc2F)s1)C(=O)Nc1ccc(CC(=O)O)cc1 [Compound 48]	3.35	2.41
CCC(CC)(Cc1ccc(C(=O)Oc2ccc(C(=N)N)cc2F)s1)C(=O)NCCCCCC(=O)O [Compound 71]	8.01	4.97
CCC(CC)(Cc1ccc(C(=O)Oc2ccc(C(=N)N)cc2F)s1)C(=O)N1CCC[C@@H]1C(=O)O [Compound 22]	3.57	1
N=C(N)c1ccc(OC(=O)c2ccc(CC3(C(=O)N[C@@H](CC(=O)O)C(=O)O)CCC3)s2)c(F)c1 [Compound 1, N-[1{5-(4-amidino-2-fluorophenoxycarbonyl)thiophen-2-ylmethyl}-cyclobutylcarbonyl]-1-aspartic acid trifluoroacetic acid salt]	0.61	0.14
CCC(CC)(Cc1ccc(C(=O)Oc2ccc(C(=N)N)cc2F)s1)C(=O)Nc1cc(C(=O)O)cc(C(=O)O)c1 [Compound 66]	1.58	0.71
C=CCN(CC(=O)O)C(=O)C(C)(C)Cc1ccc(C(=O)Oc2ccc(C(=N)N)cc2F)s1 [Compound 5]	0.5	0.24
CC(C)[C@H](NC(=O)C(C)(C)Cc1ccc(C(=O)Oc2ccc(C(=N)N)cc2F)s1)C(=O)O [Compound 9, N-{3-[5-(4-amidino-2-fluoro-phenoxycarbonyl)thiophen-2-yl]-2,2-dimethylpropionyl}-1-valine hydrochloride]	2.02	0.79
CC(C)(Cc1ccc(C(=O)Oc2ccc(C(=N)N)cc2F)s1)C(=O)N[C@@H](C(=O)O)C1CCCCC1 [Compound 36]	3.07	4.7
N=C(N)c1ccc(OC(=O)c2ccc(CC3(C(=O)N[C@@H](CC(=O)O)C(=O)O)CCCC3)s2)c(F)c1 [Compound 2, N-{1-[5-(4-amidino-2-fluorophenoxycarbonyl)thiophen-2-ylmethyl]-2-cyclopentylcarbonyl}-1-aspartic acid trifluoroacetic acid salt]	4.1	0.73
CC(C)(Cc1ccc(C(=O)Oc2ccc(C(=N)N)cc2F)s1)C(=O)N1CCC(C(=O)O)CC1 [Compound 26]	3.1	1.33
CCC(CC)(Cc1ccc(C(=O)Oc2ccc(C(=N)N)cc2F)s1)C(=O)O [Compound 18, 3-[5-(4-amidino-2-fluorophenoxycarbonyl)thiophen-2-yl]-2,2-diethylpropanoic acid trifluoroacetic acid salt]	2.49	1.24
CCC(CC)(Cc1ccc(C(=O)Oc2ccc(C(=N)N)cc2F)s1)C(=O)Nc1cc(C(=O)O)cc(C(=O)OC)c1 [Compound 67]	4.4	3.73
COc1ccc(NC(=O)C(C)(C)Cc2ccc(C(=O)Oc3ccc(C(=N)N)cc3F)s2)cn1 [Compound 45]	3.36	4.13
CC(C)(Cc1ccc(C(=O)Oc2ccc(C(=N)N)cc2F)s1)C(=O)NCCc1nnn[nH]1 [Compound 64]	1.6	0.53
